Experimental data from ChEMBL document CHEMBL1781969, “4β-[(4-Alkyl)-1,2,3-triazol-1-yl] podophyllotoxins as anticancer compounds: design, synthesis and biological evaluation” (Eur J Med Chem, 2011).
Activity calls are given as the source filed them. The calls are words filed in the database; no cut-off is given here.

How the values were obtained:
SF-295 = assay: Cytotoxicity against human SF295 cells after 48 hrs by sulforhodamine B assay; type: functional, cell-based; settings: SF-295, 48 h
MCF7 [1] = assay: cells; settings: Homo sapiens, MCF7, 48 h
Description: Cytotoxicity against human MCF7 cells after 48 hrs by sulforhodamine B assay

A549 = assay: cells; settings: Homo sapiens, A549, 48 h
Description: Cytotoxicity against human A549 cells after 48 hrs by sulforhodamine B assay

PC-3 = assay: cells; settings: Homo sapiens, PC-3, 48 h
Description: Cytotoxicity against human PC3 cells after 48 hrs by sulforhodamine B assay

HEp-2 = assay: Cytotoxicity against human Hep2 cells after 48 hrs by sulforhodamine B assay; type: functional, cell-based; settings: HEp-2, 48 h
HCT-15 = assay: cells; settings: Homo sapiens, HCT-15, 48 h
Description: Cytotoxicity against human HCT15 cells after 48 hrs by sulforhodamine B assay

MCF7 [2] = assay: Cell cycle arrest in human MCF7 cells assessed as accumulation at G1/G0-phase at 5 uM after 24 hrs using propidium iodide staining by flow cytometry (reference value: 47.42%); type: functional
MCF7 [3] = assay: Cell cycle arrest in human MCF7 cells assessed as accumulation at sub-G1 phase at 5 uM after 24 hrs using propidium iodide staining by flow cytometry (reference value: 7.69%); type: functional
MCF7 [4] = assay: Cell cycle arrest in human MCF7 cells assessed as accumulation in S-phase at 1 uM after 24 hrs using propidium iodide staining by flow cytometry (reference value: 25.29%); type: functional
MCF7 [5] = assay: Cell cycle arrest in human MCF7 cells assessed as accumulation at G2/M-phase at 1 uM after 24 hrs using propidium iodide staining by flow cytometry (reference value: 19.91%); type: functional
MCF7 [6] = assay: Cell cycle arrest in human MCF7 cells assessed as accumulation at G2/M-phase at 5 uM after 24 hrs using propidium iodide staining by flow cytometry (reference value: 19.91%); type: functional
MCF7 [7] = assay: Cell cycle arrest in human MCF7 cells assessed as accumulation at sub-G1 phase at 1 uM after 24 hrs using propidium iodide staining by flow cytometry (reference value: 7.69%); type: functional
MCF7 [8] = assay: Induction of apoptosis in human MCF7 cells assessed as DNA ladder formation at 1 uM after 24 hrs using ethidium bromide staining by agarose gel electrophoresis; type: functional, cell-based
MCF7 [9] = assay: Cell cycle arrest in human MCF7 cells assessed as accumulation at G1/G0-phase at 1 uM after 24 hrs using propidium iodide staining by flow cytometry (reference value: 47.42%); type: functional
MCF7 [10] = assay: Cell cycle arrest in human MCF7 cells assessed as accumulation in S-phase at 5 uM after 24 hrs using propidium iodide staining by flow cytometry (reference value: 25.29%); type: functional

| SMILES | IC50 (SF-295) | IC50 (MCF7 [1]) | IC50 (A549) | IC50 (PC-3) | IC50 (HEp-2) | IC50 (HCT-15) | Activity (MCF7 [2]) | Activity (MCF7 [3]) | Activity (MCF7 [4]) | Activity (MCF7 [5]) | Activity (MCF7 [6]) | Activity (MCF7 [7]) | Activity (MCF7 [8]) | Activity (MCF7 [9]) | Activity (MCF7 [10]) |
| --- | --- | --- | --- | --- | --- | --- | --- | --- | --- | --- | --- | --- | --- | --- | --- |
| CCCCCCc1cn([C@@H]2c3cc4c(cc3[C@@H](c3cc(OC)c(OC)c(OC)c3)[C@H]3C(=O)OC[C@@H]32)OCO4)nn1 | 10 µM | 8.6 µM | 35 µM | 6.4 µM | 10 µM | 27 µM | – | – | – | – | – | – | – | – | – |
| CCCCc1cn([C@@H]2c3cc4c(cc3[C@@H](c3cc(OC)c(OC)c(OC)c3)[C@H]3C(=O)OC[C@@H]32)OCO4)nn1 | 8.1 µM | 9.8 µM | 82 µM | 6.6 µM | 9.6 µM | 11 µM | – | – | – | – | – | – | – | – | – |
| CCCCCc1cn([C@@H]2c3cc4c(cc3[C@@H](c3cc(OC)c(O)c(OC)c3)[C@H]3C(=O)OC[C@@H]32)OCO4)nn1 | 4.3 µM | 14 µM | 26 µM | 4.7 µM | 21 µM | 2.1 µM | – | – | – | – | – | – | – | – | – |
| CCCCCCCCCCc1cn([C@@H]2c3cc4c(cc3[C@@H](c3cc(OC)c(OC)c(OC)c3)[C@H]3C(=O)OC[C@@H]32)OCO4)nn1 | 6.2 µM | 5.7 µM | > 100 µM | 5.5 µM | 5.8 µM | 29 µM | – | – | – | – | – | – | – | – | – |
| CCc1cn([C@@H]2c3cc4c(cc3[C@@H](c3cc(OC)c(O)c(OC)c3)[C@H]3C(=O)OC[C@@H]32)OCO4)nn1 | 4.8 µM | 0.04 µM | 17 µM | 0.06 µM | 0.05 µM | 1.9 µM | – | – | – | – | – | – | – | – | – |
| CCCc1cn([C@@H]2c3cc4c(cc3[C@@H](c3cc(OC)c(O)c(OC)c3)[C@H]3C(=O)OC[C@@H]32)OCO4)nn1 | 2.3 µM | 5.7 µM | 27 µM | 0.2 µM | 2.9 µM | 0.8 µM | – | – | – | – | – | – | – | – | – |
| COc1cc([C@@H]2c3cc4c(cc3[C@@H](O[C@@H]3O[C@@H]5CO[C@@H](C)O[C@H]5[C@H](O)[C@H]3O)[C@H]3COC(=O)[C@H]23)OCO4)cc(OC)c1O [ETOPOSIDE] | 13.5 µM | 19 µM | – | – | – | 7.15 µM | – | – | – | – | – | – | – | – | – |
| COc1cc([C@@H]2c3cc4c(cc3[C@@H](n3cc(CO)nn3)[C@H]3COC(=O)[C@H]23)OCO4)cc(OC)c1OC | 2.1 µM | 0.01 µM | > 100 µM | 0.06 µM | 0.06 µM | 15 µM | – | – | – | – | – | – | – | – | – |
| COc1cc([C@@H]2c3cc4c(cc3[C@@H](n3cc(CO)nn3)[C@H]3COC(=O)[C@H]23)OCO4)cc(OC)c1O | 15 µM | 0.6 µM | 18 µM | 8.2 µM | 6.7 µM | 18 µM | – | – | – | – | – | – | – | – | – |
| CCCc1cn([C@@H]2c3cc4c(cc3[C@@H](c3cc(OC)c(OC)c(OC)c3)[C@H]3C(=O)OC[C@@H]32)OCO4)nn1 | 3.6 µM | 1.4 µM | 39 µM | 5.1 µM | 1.6 µM | 0.03 µM | 10.56% | 78.16% | 16.17% | 3.39% | 1.07% | 55.65% | Active | 27.81% | 11.44% |
| CCCCc1cn([C@@H]2c3cc4c(cc3[C@@H](c3cc(OC)c(O)c(OC)c3)[C@H]3C(=O)OC[C@@H]32)OCO4)nn1 | 21 µM | 20 µM | 35 µM | 12 µM | 17 µM | 34 µM | – | – | – | – | – | – | – | – | – |
| CCCCCCCCc1cn([C@@H]2c3cc4c(cc3[C@@H](c3cc(OC)c(O)c(OC)c3)[C@H]3C(=O)OC[C@@H]32)OCO4)nn1 | 5.7 µM | 11 µM | > 100 µM | 5.1 µM | 3.8 µM | 13 µM | – | – | – | – | – | – | – | – | – |
| CCCCCCc1cn([C@@H]2c3cc4c(cc3[C@@H](c3cc(OC)c(O)c(OC)c3)[C@H]3C(=O)OC[C@@H]32)OCO4)nn1 | 18 µM | 19 µM | 26 µM | 8.7 µM | > 100 µM | 11 µM | – | – | – | – | – | – | – | – | – |
| CCCCCc1cn([C@@H]2c3cc4c(cc3[C@@H](c3cc(OC)c(OC)c(OC)c3)[C@H]3C(=O)OC[C@@H]32)OCO4)nn1 | 24 µM | 9.5 µM | 39 µM | 8.4 µM | 7.7 µM | 11 µM | – | – | – | – | – | – | – | – | – |
| CCCCCCCCc1cn([C@@H]2c3cc4c(cc3[C@@H](c3cc(OC)c(OC)c(OC)c3)[C@H]3C(=O)OC[C@@H]32)OCO4)nn1 | 14 µM | 9.3 µM | > 100 µM | 17 µM | 18 µM | > 100 µM | – | – | – | – | – | – | – | – | – |
| CCCCCCCc1cn([C@@H]2c3cc4c(cc3[C@@H](c3cc(OC)c(OC)c(OC)c3)[C@H]3C(=O)OC[C@@H]32)OCO4)nn1 | 25 µM | 6.4 µM | 36 µM | 23 µM | 9.8 µM | 45 µM | – | – | – | – | – | – | – | – | – |
| CCCCCCCc1cn([C@@H]2c3cc4c(cc3[C@@H](c3cc(OC)c(O)c(OC)c3)[C@H]3C(=O)OC[C@@H]32)OCO4)nn1 | 10 µM | 13 µM | 45 µM | 5.8 µM | 6 µM | 15 µM | – | – | – | – | – | – | – | – | – |
| CCCCCCCCCCc1cn([C@@H]2c3cc4c(cc3[C@@H](c3cc(OC)c(O)c(OC)c3)[C@H]3C(=O)OC[C@@H]32)OCO4)nn1 | 13 µM | 11 µM | 30 µM | 19 µM | 19 µM | 15 µM | – | – | – | – | – | – | – | – | – |
| CCc1cn([C@@H]2c3cc4c(cc3[C@@H](c3cc(OC)c(OC)c(OC)c3)[C@H]3C(=O)OC[C@@H]32)OCO4)nn1 | 1.8 µM | 0.4 µM | 35 µM | 0.03 µM | 0.06 µM | 0.4 µM | 16.28% | 80.1% | 5.99% | 1.96% | 1.74% | 69.34% | Active | 22.27% | 2.84% |
